Reference: article PMC9964746, “Mechanism of Action and Structure–Activity Relationships of Tetracyclic Small Molecules Acting as Universal Positive Allosteric Modulators of the Cholecystokinin Receptor” (Membranes, 2023)
Where “and” joins values, the source holds several entries; their conditions need not be identical. Identical values can stand only once.

What was measured:
Format in all cases: cell-based
CCK1R [1] = molecular target: T1, CCK1R (Homo sapiens, UniProt P32238); test: IP-One accumulation TR-FRET assay, agonist format, HEK-293 CCK1R cells; design: expressed in transfected cells; host or cells: HEK-293; conditions: for Emax: HEK293, relative to CCK control, read-out: CCK1R Ago (IP-One) Emax
T1 sequence (P32238 1-428): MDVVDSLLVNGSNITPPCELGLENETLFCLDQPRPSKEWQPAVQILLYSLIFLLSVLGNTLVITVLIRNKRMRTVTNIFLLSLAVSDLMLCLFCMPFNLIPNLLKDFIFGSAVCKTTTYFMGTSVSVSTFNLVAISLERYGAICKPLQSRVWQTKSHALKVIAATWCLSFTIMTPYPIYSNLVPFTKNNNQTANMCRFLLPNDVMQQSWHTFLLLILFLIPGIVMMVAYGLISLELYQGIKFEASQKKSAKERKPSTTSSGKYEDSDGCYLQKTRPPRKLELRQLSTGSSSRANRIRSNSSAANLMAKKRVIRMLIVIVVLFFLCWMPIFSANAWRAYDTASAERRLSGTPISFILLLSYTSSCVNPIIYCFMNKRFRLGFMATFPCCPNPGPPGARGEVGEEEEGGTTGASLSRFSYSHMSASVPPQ
Protocol: (§1) For structure–activity relationship studies, we performed myo-inositol-1-phosphate (IP-One) accumulation assays with TR-FRET technology applied to the HEK-293 cell line overexpressing CCK1Rs, as we had described in our high throughput screening effort. In brief, thawed cryopreserved cell stocks were re-suspended in IP-One assay media consisting of phenol-red free DMEM (Corning, Corning, NY, USA, #17-205-CV) with 10% FBS, 1% penicillin (10,000 units)/streptomycin (10 mg) (Pen/Strep, Thermo Fisher Scientific, Waltham, MA, USA, Gibco #15140122), and 1% L-glutamine (200 mM) (Gibco #25030081) and diluted to required cell densities. Then, the cell suspension was dispensed into a 1536-well tissue culture microplate (Corning, #3727), and the plate was incubated overnight at 37 °C and 5% CO^2. After 16–20 h, DMSO or compounds were added with an Echo liquid handler (Labcyte, San Jose, CA, USA), resulting in a top final compound concentration of 50 µM diluted 2-fold for 16-point dose–responses. For the positive allosteric modulator (PAM) format, orthosteric stimulator (CCK) dilutions for control wells were prepared in assay media containing 150 mM lithium chloride (LiCl, 50 mM final, Sigma-Aldrich, St Louis, MO, USA, #L7026). After a 30 min incubation of test compounds at 37 °C and 5% CO2, orthosteric stimulator dilutions (for PAM format) or equivalent dilutions of DMSO (for agonist format) were added to designated wells using BioRaptr (Beckman Coulter, Brea, CA, USA). In addition, CCK control ligand dilutions were included on each test plate. After that, the plate was incubated for 1 h at 37 °C and 5% CO^2 and equilibrated to room temperature. Detection reagents from the IP-One Gq detection kit from Cisbio (Cisbio US Inc., Bedford, MA, USA, #62IPAPEJ) were added, and after 1 h at RT, IP-One content was measured with a PHERAstar FSX microplate reader (BMG Labtech, Ortenberg, Germany). Control ligand dose–responses were analyzed using GraphPad Prism 9.3.1 (San Diego, CA, USA) to validate adequate control and test well concentrations for positive allosteric modulation (PAM) and agonist formats. Dose–response curves were performed as 16-point 2-fold dilutions in duplicates in at least three independent experiments. Large data sets were uploaded and analyzed with CBIS (Chemical and Biology Information System software, ChemInnovation Software, Inc., San Diego, CA, USA). Further data analysis for detailed SAR studies was conducted using the D360 software (Certara).
(§2) The potency and efficacy data for these compounds were used to calculate their activity scores using the following formula: Activity Score = normalized Emax × pEC50. Normalized Emax represents the efficacy of the compound as a fractional response relative to that of the CCK control ligand. pEC50 represents the positive logarithmic value of compound EC50 concentrations in (M).

CCK1R [2] = molecular target: T1, CCK1R; test: IP-One accumulation TR-FRET assay, PAM format, HEK-293 CCK1R cells; design: expressed in transfected cells; host or cells: HEK-293; conditions: for Emax: HEK293, relative to CCK control; for Emax / CCK1R PAM (IP-One) Score (activity score = normalized Emax × pEC50) / EC50: HEK-293 CCK1R cells; for Emax / CCK1R PAM (IP-One) Score (activity score = normalized Emax × pEC50): PAM format; for Emax / EC50: average ± SD; for EC50: PAM format with EC20 CCK; for CCK1R IP-One activity (in words): PAM and agonist formats
Protocol: as §1, §2

[3] = molecular target: T2, vasopressin-2 receptor (AVP2R) (Homo sapiens, UniProt P30518); test: AVP2R cAMP HTRF accumulation assay; conditions: for AVP2R PAM (cAMP) Score (activity score = normalized Emax × pEC50) / EC50 / Emax: CHO-K1 AVP2R cells; for EC50 / Emax: PAM format with vasopressin, original hits: agonist and PAM data combined, average ± SD
T2 construct: expressed in transfected cells; host or cells: CHO-K1 (PAM format); HEK-293 (agonist format)
T2 sequence (P30518 whole entry): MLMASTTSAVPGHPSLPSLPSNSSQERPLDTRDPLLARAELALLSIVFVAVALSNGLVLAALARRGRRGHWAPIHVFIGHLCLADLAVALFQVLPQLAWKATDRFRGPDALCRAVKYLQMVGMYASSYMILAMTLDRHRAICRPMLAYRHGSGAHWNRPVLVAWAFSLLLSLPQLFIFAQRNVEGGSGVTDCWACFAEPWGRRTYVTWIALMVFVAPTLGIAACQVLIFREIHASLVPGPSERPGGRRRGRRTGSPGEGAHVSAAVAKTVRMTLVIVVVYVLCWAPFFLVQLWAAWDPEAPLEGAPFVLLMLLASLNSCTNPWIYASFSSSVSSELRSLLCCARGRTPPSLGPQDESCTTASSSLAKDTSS
Protocol: Possible off-target biological effects. […] Here, we tested them at the vasopressin-2 receptor (AVP2R), representing a class A GPCR structurally related to CCK1R, which is coupled to Gs. The activity at AVP2R was tested using AVP2R-overexpressing CHO-K1 (PAM format) or HEK-293 (agonist format) cells, stimulating the cells with vasopressin. Original hits were tested in both agonist and PAM formats. Since all recognized compound responses were present in both formats, we continued to screen analogs in only the PAM format (also able to capture agonist effects) in CHO-K1 AVP2R cells for potential enhanced sensitivity. The dose–response data sets for original hits were combined, as the PAM and agonist effects were indistinguishable. In brief, arginine vasopressin (AVP) orthosteric stimulator dilutions and ligand and compound dose–response titrations in DMSO were transferred onto a 1536-well plate (Corning #3725) using an Echo liquid handler (Labcyte). Thawed cryopreserved cell stocks were diluted in stimulation buffer consisting of HBSS (Hank’s Balanced Salt Solution with Ca^2+ and Mg^2+, Gibco #24020117), 5 mM HEPES (hydroxyethyl piperazineethanesulfonic acid), 0.5 mM IBMX (3-isobutyl-1-methylxanthine, Sigma-Aldrich), and 0.075% BSA (7.5% DTPA-purified bovine serum albumin, PerkinElmer). The resulting cell suspension was added to the microplate and incubated with test compounds at room temperature for 30 min. Then, the detection reagents from the Cisbio cAMP Gs Dynamic HTRF detection kit were added. The plate was kept at room temperature for 30 min and read on a PHERAstar FSX microplate reader. Dose–response curves were performed as 16-point 2-fold dilutions in duplicate in at least two independent experiments.

SMILES	CCK1R Ago (IP-One) Score (activity score = normalized Emax × pEC50) (CCK1R [1])	Emax (CCK1R [2]) [%]	CCK1R PAM (IP-One) Score (activity score = normalized Emax × pEC50) (CCK1R [2])	EC50 (CCK1R [2]) [µM]	AVP2R PAM (cAMP) Score (activity score = normalized Emax × pEC50) ([3]; PAM format)	EC50 [3] [µM]	Emax [3] [%]	Emax (CCK1R [1]; average ± SD) [%]	CCK1R IP-One activity (in words) (CCK1R [2])	Log(Rmax/R50) (CCK1R [2]; CCK1R IP-One PAM assay)	AVP2R cAMP response (in words) ([3]; PAM format)	EC50 (CCK1R [1]; average ± SD, read-out: CCK1R Ago (IP-One) EC50) [µM]
CCCc1nc2oc3c(N4CCN(CCO)CC4)ncnc3c2c2c1CCCC2 [CMP-30]	0	36 ± 16	1.55	27.1 ± 10.7	1.52	5.9 ± 3.8	29	–	–	–	–	–
OCCN1CCN(c2ncnc3c2sc2nc(-c4ccccc4)c4c(c23)CCC4)CC1 [CMP-37]	0	28 ± 9	1.26	31.7 ± 1.2	0	–	0	0	loss of activities across all formats	–	–	–
CN(C)CCNc1ncnc2c1sc1nc(N3CCOCC3)c3c(c12)CCCC3 [CMP-4]	0	62 ± 33	2.71	14.4 ± 1.5	1.2	12.8 ± 14	24.5 ± 7.1	0	–	–	–	–
CCN(CC)CCNc1ncnc2c1oc1nc(CC(C)C)c3c(c12)CCC3 [CMP-33]	0	35 ± 19	1.51	18.8 ± 7.7	1.60	21 ± 6.5	34 ± 1	–	–	–	–	–
CCCc1nc2sc3c(NCCN(CC)CC)ncnc3c2c2c1CCCC2 [CMP-7]	0	48 ± 11	2.4 and 2.39	8 ± 2.1	1.6 and 1.61	6.5 ± 4.2	31 ± 2	–	–	–	–	–
CCCc1nc2oc3c(NN)ncnc3c2c2c1CCCC2 [CMP-53]	0	0	0	–	2.95	15.3 ± 9.8	61 ± 12	0	–	–	–	–
CCCc1nc2sc3c(SC)ncnc3c2c2c1CCCC2 [CMP-38]	0	20 ± 7.6	1.0 and 1.01	7.6 ± 3.3	0	–	0	0	–	4.4	–	–
c1nc(N2CCCC2)c2sc3nc(N4CCOCC4)c4c(c3c2n1)CCCC4 [CMP-64]	0	–	–	–	0	–	0	0	significantly diminished responses	–	–	–
CCOC(=O)N1CCN(c2ncnc3c2oc2nc(CC(C)C)c4c(c23)CCCC4)CC1 [CMP-55]	0	0	0	–	0	–	0	0	–	–	–	–
O=C(CSc1ncnc2c1sc1nc(N3CCOCC3)c3c(c12)CCCC3)NCc1ccco1 [CMP-65]	0	0	0	–	4.78	10 ± 1.7	96 ± 5	0	–	–	strong activation of AVP2R-mediated cAMP accumulation	–
CCCCc1nc2sc3c(NCCN4CCOCC4)ncnc3c2c2c1CCCC2 [CMP-32]	0	41 ± 34	1.52	23.9 ± 25.8	1.67	9.3 ± 11.1	33 ± 26	–	–	–	–	–
CCN(CC)CCNc1ncnc2c1sc1nc(-c3ccccc3)c3c(c12)CCCC3 [CMP-11]	1.0 and 0.96	45 ± 6	2.3 and 2.27	9.1 ± 4.8	2.4 and 2.44	3.2 ± 1.1	44 ± 8	21 ± 2	–	–	–	27.1 ± 15.3
